Values belong to the molecule of their own block, whether it stands above or below them. Activity calls are given as the source filed them. The calls are words filed in the database; no cut-off is given here.
Legend:
[1] = test system: NCI-H2122; experiment: Growth inhibition of human NCI-H2122 cells grown under 3D anchorage-independent soft-agar conditions at 1110 nM incubated for 14 days by alamar blue dye based assay relative to control; format: functional; settings: NCI-H2122, 336 h, read-out: GI
[2] = test system: NCI-H2122; experiment: Growth inhibition of human NCI-H2122 cells grown under 3D anchorage-independent soft-agar conditions at 164 nM incubated for 14 days by alamar blue dye based assay relative to control; format: functional; settings: NCI-H2122, 336 h, read-out: GI
[3] = test system: NCI-H2122; experiment: Growth inhibition of human NCI-H2122 cells grown under 3D anchorage-independent soft-agar conditions at 370 nM incubated for 14 days by alamar blue dye based assay relative to control; format: functional; settings: NCI-H2122, 336 h, read-out: GI
[4] = test system: NCI-H2122; experiment: Growth inhibition of human NCI-H2122 cells grown under 3D anchorage-independent soft-agar conditions at 3330 nM incubated for 14 days by alamar blue dye based assay relative to control; format: functional; settings: NCI-H2122, 336 h, read-out: GI
[5] = test system: NCI-H2122; experiment: Growth inhibition of human NCI-H2122 cells grown under 3D anchorage-independent soft-agar conditions at 123 nM incubated for 14 days by alamar blue dye based assay relative to control; format: functional; settings: NCI-H2122, 336 h, read-out: GI
[6] = test system: PC-9; experiment: Growth inhibition of human PC9 cells grown under 3D anchorage-independent soft-agar conditions at 1.85 nM incubated for 14 days by alamar blue dye based assay relative to control; format: functional; settings: PC-9, 336 h, read-out: GI
[7] = test system: PC-9; experiment: Growth inhibition of human PC9 cells grown under 3D anchorage-independent soft-agar conditions at 50 nM incubated for 14 days by alamar blue dye based assay relative to control; format: functional; settings: PC-9, 336 h, read-out: GI
[8] = test system: PC-9; experiment: Growth inhibition of human PC9 cells grown under 3D anchorage-independent soft-agar conditions at 16.7 nM incubated for 14 days by alamar blue dye based assay relative to control; format: functional; settings: PC-9, 336 h, read-out: GI
[9] = test system: PC-9; experiment: Growth inhibition of human PC9 cells grown under 3D anchorage-independent soft-agar conditions at 0.617 nM incubated for 14 days by alamar blue dye based assay relative to control; format: functional; settings: PC-9, 336 h, read-out: GI
[10] = test system: PC-9; experiment: Growth inhibition of human PC9 cells grown under 3D anchorage-independent soft-agar conditions at 5.56 nM incubated for 14 days by alamar blue dye based assay relative to control; format: functional; settings: PC-9, 336 h, read-out: GI
[11] = test system: NCI-H358; experiment: Induction of apoptosis in human NCI-H358 cells grown under 3D anchorage-independent soft-agar conditions at grown under 3D anchorage-independent soft-agar conditions assessed as induction of PARP cleavage at 125 nM incubated for 48 hrs by mesoscale assay; format: functional, cell-based
[12] = test system: NCI-H358; experiment: Induction of apoptosis in human NCI-H358 cells grown under 3D anchorage-independent soft-agar conditions at grown under 3D anchorage-independent soft-agar conditions assessed as induction of PARP cleavage at 1 uM incubated for 24 to 72 hrs by mesoscale assay; format: functional, cell-based
[13] = test system: NCI-H358; experiment: Induction of apoptosis in human NCI-H358 cells grown under 3D anchorage-independent soft-agar conditions at grown under 3D anchorage-independent soft-agar conditions assessed as induction of PARP cleavage at 1 uM in presence of 125 nM of afatinib incubated for 24 hrs by mesoscale assay; format: functional, cell-based
[14] = test system: A549; experiment: Induction of apoptosis in human A549 cells grown under 3D anchorage-independent soft-agar conditions at grown under 3D anchorage-independent soft-agar conditions assessed as induction of PARP cleavage at 1 uM in presence of 10 nM of paclitaxel incubated for 24 to 48 hrs by mesoscale assay; format: functional, cell-based
[15] = test system: MIA PaCa-2; settings: Homo sapiens, 50 mg/kg
Description: Antitumor activity against human MIAPaCa2 cells grown under 3D anchorage-independent soft-agar conditions at xenografted in BomTacNMRI-Foxn1 nu mouse assessed as inhibition of tumor regression at 50 mg/kg, po BID relative to control

[16] = molecular target: T1, Mitogen-activated protein kinase; ERK1/ERK2 (Homo sapiens) (UniProt P27361+P28482); experiment: Inhibition of ERK1/2 phosphorylation in human MIAPaCa2 cells grown under 3D anchorage-independent soft-agar conditions at assessed as increase in MEK1/2 phosphorylation at Ser 217/221 residues at 25 nM incubated for 2 to 8 hrs by Western blotting analysis; format: cell-based
T1 sequence (P27361 whole entry, looked up): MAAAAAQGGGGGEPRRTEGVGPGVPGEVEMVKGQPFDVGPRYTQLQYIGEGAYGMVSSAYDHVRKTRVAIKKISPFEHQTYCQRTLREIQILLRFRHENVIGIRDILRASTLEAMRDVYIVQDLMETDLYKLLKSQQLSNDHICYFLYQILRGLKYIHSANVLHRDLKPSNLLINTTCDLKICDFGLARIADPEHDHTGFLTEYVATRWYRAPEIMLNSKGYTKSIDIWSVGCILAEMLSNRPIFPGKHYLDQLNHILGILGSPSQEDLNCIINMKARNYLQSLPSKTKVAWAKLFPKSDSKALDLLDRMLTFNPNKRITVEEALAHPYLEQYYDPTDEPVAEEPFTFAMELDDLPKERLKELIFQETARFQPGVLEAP
T1 sequence (P28482 whole entry, looked up): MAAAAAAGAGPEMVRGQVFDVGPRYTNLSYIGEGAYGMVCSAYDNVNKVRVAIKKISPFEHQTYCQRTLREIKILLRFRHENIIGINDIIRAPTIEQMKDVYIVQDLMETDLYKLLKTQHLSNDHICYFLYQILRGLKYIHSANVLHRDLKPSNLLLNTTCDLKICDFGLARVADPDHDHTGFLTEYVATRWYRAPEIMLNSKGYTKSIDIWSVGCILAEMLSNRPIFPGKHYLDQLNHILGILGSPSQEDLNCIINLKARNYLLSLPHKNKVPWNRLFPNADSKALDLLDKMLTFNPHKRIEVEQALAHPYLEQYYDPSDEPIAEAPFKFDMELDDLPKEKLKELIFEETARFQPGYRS

[17] = molecular target: T1, Mitogen-activated protein kinase; ERK1/ERK2 (Homo sapiens); experiment: Inhibition of ERK1/2 phosphorylation at Thr202/Tyr204 residues in human MIAPaCa2 cells grown under 3D anchorage-independent soft-agar conditions at 50 nM incubated for 2 to 8 hrs by Western blotting analysis relative to control; format: cell-based
[18] = test system: MIA PaCa-2; experiment: Antitumor activity against human MIAPaCa2 cells grown under 3D anchorage-independent soft-agar conditions at xenografted in BomTacNMRI-Foxn1 nu mouse assessed as inhibition of tumor regression at 0.05 mg/kg, po BID relative to control; format: functional, organism-based
[19] = test system: MIA PaCa-2; experiment: Antitumor activity against human MIAPaCa2 cells grown under 3D anchorage-independent soft-agar conditions at xenografted in BomTacNMRI-Foxn1 nu mouse assessed as inhibition of tumor regression at 0.125 mg/kg, po BID relative to control; format: functional, organism-based

SMILES: CCN1CCN(Cc2ccc(Nc3ncc(F)c(-c4cc(F)c5nc(C)n(C(C)C)c5c4)n3)nc2)CC1 [ABEMACICLIB]
inhibition of growth at 1.11 µM [1]: 91% | inhibition of growth at 0.164 µM [2]: 103% | inhibition of growth at 0.37 µM [3]: 73% | inhibition of growth at 3.33 µM [4]: 81% | inhibition of growth at 0.123 µM [5]: 10%

SMILES: C#Cc1cccc(Nc2ncnc3cc(OCCOC)c(OCCOC)cc23)c1 [ERLOTINIB]
inhibition of growth at 0.00185 µM [6]: 12% | inhibition of growth at 0.05 µM [7]: 199% | inhibition of growth at 0.0167 µM [8]: 147% | inhibition of growth at 0.000617 µM [9]: 0% | inhibition of growth at 0.00556 µM [10]: 49%

SMILES: CN(C)C/C=C/C(=O)Nc1cc2c(Nc3ccc(F)c(Cl)c3)ncnc2cc1O[C@H]1CCOC1
Activity [11]: Active

SMILES: COc1cc2nc(C)nc(N[C@H](C)c3cc(N)cc(C(F)(F)F)c3)c2cc1O[C@H]1CCOC1
Activity [12]: inactive | Activity [13]: Active | Activity [14]: Active | inhibition [15]: inactive

inhibition [16]: Active | inhibition [17]: 65 to 75%
SMILES: CC(=O)Nc1cccc(-n2c(=O)n(C3CC3)c(=O)c3c(Nc4ccc(I)cc4F)n(C)c(=O)c(C)c32)c1
inhibition [18]: inactive | inhibition [19]: inactive

— ChEMBL document CHEMBL4420081, “Novel benzylamino substituted quinazolines and derivatives as sos1 inhibitors” (2018)
